Results published in PubChem BioAssay (NCI).
Where “and” joins values, the source holds several entries; their conditions need not be identical. Identical values can stand only once.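 Results reflect a 48-hour exposure of cells in 96-well plates to compound at five concentrations. Here, GI50 denotes the concentration required for 50% inhibition of growth. TGI: concentration producing complete growth inhibition.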

Columns and labels:
Assay in all cases: inhibition of tumour cell growth, NCI panel, 48 h
TK-10 renal = system: TK-10 renal
OVCAR-5 ovarian = system: OVCAR-5 ovarian
SK-MEL-5 melanoma = system: SK-MEL-5 melanoma
MDA-MB-231 breast = system: MDA-MB-231 breast
IGROV1 ovarian = system: IGROV1 ovarian
OVCAR-8 ovarian = system: OVCAR-8 ovarian
T-47D breast = system: T-47D breast
NCI-H23 lung = system: NCI-H23 lung
RXF 393 renal = system: RXF 393 renal
SK-MEL-2 melanoma = system: SK-MEL-2 melanoma

O=c1c(-c2ccccc2)coc2cc(OC/C(=N/O)c3ccc(F)cc3)ccc12
GI50 (TK-10 renal): 16.9 µM
TGI (TK-10 renal): 39.5 µM
GI50 (OVCAR-5 ovarian): 18.1 µM
TGI (OVCAR-5 ovarian): 43.8 µM
GI50 (SK-MEL-5 melanoma): 11.6 µM
TGI (SK-MEL-5 melanoma): 23.9 µM
GI50 (MDA-MB-231 breast): 19.6 µM
TGI (MDA-MB-231 breast): 43.4 µM
GI50 (IGROV1 ovarian): 19.9 µM
TGI (IGROV1 ovarian): > 100 µM
GI50 (OVCAR-8 ovarian): 16.9 µM
TGI (OVCAR-8 ovarian): 43.4 µM
GI50 (T-47D breast): 7.87 µM
TGI (T-47D breast): 68.5 µM
GI50 (NCI-H23 lung): 19.3 µM
TGI (NCI-H23 lung): 42.1 µM
GI50 (RXF 393 renal): 17.7 µM
TGI (RXF 393 renal): 37.5 µM

COCCOCOC(C)(C)[C@H](CCOC(C)=O)O[Si](c1ccccc1)(c1ccccc1)C(C)(C)C
TGI (TK-10 renal): 87.1 µM
TGI (OVCAR-5 ovarian): > 100 µM
TGI (SK-MEL-5 melanoma): 23.7 µM
TGI (IGROV1 ovarian): > 100 µM
TGI (OVCAR-8 ovarian): 75.2 µM
TGI (NCI-H23 lung): 80 µM
TGI (RXF 393 renal): 45.7 µM
TGI (SK-MEL-2 melanoma): 59.2 µM

NC(=O)C12CC3CC(CC(Br)(C3)C1)C2
TGI (TK-10 renal): > 100 µM
TGI (OVCAR-5 ovarian): > 100 µM
TGI (SK-MEL-5 melanoma): > 100 µM
TGI (IGROV1 ovarian): > 100 µM
TGI (OVCAR-8 ovarian): > 100 µM
TGI (NCI-H23 lung): > 100 µM

O=C(CCc1nc(=S)[nH][nH]1)Nc1cccc(C(F)(F)F)c1
TGI (TK-10 renal): > 100 µM
TGI (OVCAR-5 ovarian): > 100 µM
TGI (SK-MEL-5 melanoma): > 100 µM
TGI (IGROV1 ovarian): > 100 µM
TGI (OVCAR-8 ovarian): > 100 µM
TGI (NCI-H23 lung): > 100 µM
TGI (RXF 393 renal): > 100 µM
TGI (SK-MEL-2 melanoma): > 100 µM

COc1ccc(-c2onc(-c3c(C)cc(C)cc3C)c2C2=NCCN2)cc1
TGI (OVCAR-5 ovarian): > 100 µM
TGI (SK-MEL-5 melanoma): 36.6 µM
TGI (IGROV1 ovarian): > 100 µM
TGI (OVCAR-8 ovarian): > 100 µM
TGI (NCI-H23 lung): > 100 µM
TGI (RXF 393 renal): > 100 µM
TGI (SK-MEL-2 melanoma): > 100 µM

CCCCc1c2c(nc3c1CCc1cc4cc5c(nc4nc1-3)-c1nc3c(c(CCCC)c1CC5)CCC/C3=C\c1ccccc1)/C(=C/c1ccccc1)CCC2
TGI (TK-10 renal): > 100 µM
TGI (IGROV1 ovarian): > 100 µM
TGI (OVCAR-8 ovarian): > 100 µM
TGI (NCI-H23 lung): > 100 µM
TGI (RXF 393 renal): > 100 µM

CC(=O)NNc1nc(C)c(C(=O)/C=C/c2ccc(/C=C/C(=O)c3sc(NNC(C)=O)nc3C)cc2)s1
TGI (TK-10 renal): > 100 µM
TGI (OVCAR-5 ovarian): > 100 µM
TGI (IGROV1 ovarian): > 100 µM
TGI (OVCAR-8 ovarian): > 100 µM
TGI (NCI-H23 lung): > 100 µM
TGI (RXF 393 renal): > 100 µM
TGI (SK-MEL-2 melanoma): > 100 µM

CCN(C(=O)CN1CCN(c2cc3c(cc2F)c(=O)c(C(=O)O)cn3CC)CC1)c1nc(-c2ccccc2)cs1
GI50 (TK-10 renal): 0.408 µM
TGI (TK-10 renal): > 100 µM
GI50 (OVCAR-5 ovarian): 0.505 µM
TGI (OVCAR-5 ovarian): > 100 µM
GI50 (SK-MEL-5 melanoma): 0.238 µM
TGI (SK-MEL-5 melanoma): 0.551 µM
GI50 (MDA-MB-231 breast): 0.442 µM
TGI (MDA-MB-231 breast): > 100 µM
GI50 (IGROV1 ovarian): 0.419 µM
TGI (IGROV1 ovarian): > 100 µM
GI50 (OVCAR-8 ovarian): 0.364 µM
TGI (OVCAR-8 ovarian): > 100 µM
GI50 (NCI-H23 lung): 0.315 µM
TGI (NCI-H23 lung): > 100 µM
GI50 (RXF 393 renal): 0.381 µM
TGI (RXF 393 renal): > 100 µM
GI50 (SK-MEL-2 melanoma): 0.248 µM
TGI (SK-MEL-2 melanoma): 0.692 µM

CCC1C(=O)OCc2c1cc1n(c2=O)C(CC)c2c-1nc1ccccc1c2Cl (stereo not given)
TGI (TK-10 renal): > 100 µM
TGI (OVCAR-5 ovarian): 54.6 µM
TGI (SK-MEL-5 melanoma): 40.5 µM
TGI (IGROV1 ovarian): > 100 µM
TGI (NCI-H23 lung): > 100 µM
TGI (SK-MEL-2 melanoma): 65.4 µM

C#C[C@H]1CCCCCC1O (stereo not given in full)
TGI (TK-10 renal): > 100 µM
TGI (OVCAR-5 ovarian): > 100 µM
TGI (SK-MEL-5 melanoma): > 100 µM
TGI (IGROV1 ovarian): > 100 µM
TGI (OVCAR-8 ovarian): > 100 µM
TGI (NCI-H23 lung): > 100 µM
TGI (RXF 393 renal): > 100 µM
TGI (SK-MEL-2 melanoma): > 100 µM

CCCCCCCCCCCCCP(=O)(NCC(N)=O)OCC (stereo not given)
TGI (TK-10 renal): 37.4 µM
TGI (OVCAR-5 ovarian): 38.3 µM
TGI (SK-MEL-5 melanoma): 35.3 µM
TGI (IGROV1 ovarian): 39.4 µM
TGI (OVCAR-8 ovarian): 45.8 µM
TGI (NCI-H23 lung): 44 µM
TGI (RXF 393 renal): 37.7 µM
TGI (SK-MEL-2 melanoma): 30.3 µM

CN1CCc2c1nc(-c1cccnc1)c1c2N(C)CC1
TGI (TK-10 renal): > 100 µM
TGI (OVCAR-5 ovarian): > 100 µM
TGI (SK-MEL-5 melanoma): > 100 µM
TGI (IGROV1 ovarian): > 100 µM
TGI (OVCAR-8 ovarian): > 100 µM
TGI (NCI-H23 lung): > 100 µM
TGI (RXF 393 renal): > 100 µM
TGI (SK-MEL-2 melanoma): > 100 µM

COC(=O)C#CCC1CCCC1C1SCCS1 (stereo not given)
TGI (TK-10 renal): > 100 µM
TGI (OVCAR-5 ovarian): > 100 µM
TGI (SK-MEL-5 melanoma): > 100 µM
TGI (IGROV1 ovarian): > 100 µM
TGI (OVCAR-8 ovarian): > 100 µM
TGI (NCI-H23 lung): > 100 µM
TGI (RXF 393 renal): > 100 µM
TGI (SK-MEL-2 melanoma): 74.6 µM

O=C(N/C(=C\c1cc(Cl)ccc1Cl)c1nc2ccc(Cl)cc2[nH]1)c1ccccc1
TGI (TK-10 renal): 10.9 µM
TGI (OVCAR-5 ovarian): 60.1 µM
TGI (SK-MEL-5 melanoma): 25.9 µM
TGI (IGROV1 ovarian): 29.8 µM
TGI (OVCAR-8 ovarian): 31.6 µM
TGI (NCI-H23 lung): 28.7 µM
TGI (RXF 393 renal): 29.2 µM
TGI (SK-MEL-2 melanoma): 32.4 µM

Clc1ccccc1NN(Cc1ccncc1)c1ccccc1Cl
TGI (OVCAR-5 ovarian): 38.4 µM
TGI (SK-MEL-5 melanoma): 27.6 µM
TGI (MDA-MB-231 breast): 27.8 µM
TGI (IGROV1 ovarian): 27.7 µM
TGI (OVCAR-8 ovarian): 29.3 µM
TGI (NCI-H23 lung): 29.2 µM
TGI (RXF 393 renal): 31.8 µM
TGI (SK-MEL-2 melanoma): 28.6 µM

CC1=C(Cl)C[C@@H](/C(C)=C\Cl)O[C@@]1(O)C(Br)Br
TGI (TK-10 renal): > 100 µM
TGI (OVCAR-5 ovarian): 44.2 µM
TGI (SK-MEL-5 melanoma): 54.9 µM
TGI (MDA-MB-231 breast): 41.7 µM
TGI (IGROV1 ovarian): > 100 µM
TGI (OVCAR-8 ovarian): > 100 µM
TGI (NCI-H23 lung): > 100 µM
TGI (RXF 393 renal): 62.2 µM
TGI (SK-MEL-2 melanoma): 73.8 µM

COc1ccc2c(c1)C(=O)c1c-2c(N2CCNCC2)nc2ccccc12
GI50 (TK-10 renal): 8.36 µM
TGI (TK-10 renal): 23.6 µM
GI50 (OVCAR-5 ovarian): 14.4 µM
TGI (OVCAR-5 ovarian): 30.2 µM
GI50 (SK-MEL-5 melanoma): 11.3 µM
TGI (SK-MEL-5 melanoma): 24.7 µM
GI50 (MDA-MB-231 breast): 3.21 µM
TGI (MDA-MB-231 breast): 11.1 µM
GI50 (IGROV1 ovarian): 2.37 µM
TGI (IGROV1 ovarian): 8.7 µM
GI50 (OVCAR-8 ovarian): 5.81 µM
TGI (OVCAR-8 ovarian): 23.4 µM
GI50 (T-47D breast): 1.96 µM
TGI (T-47D breast): 4.41 µM
GI50 (SK-MEL-2 melanoma): 4.62 µM
TGI (SK-MEL-2 melanoma): 21.2 µM

Nc1ncnc2c1nnn2C1C=C(CO)C(O)C1O (stereo not given)
TGI (TK-10 renal): > 100 µM
TGI (OVCAR-5 ovarian): > 100 µM
TGI (SK-MEL-5 melanoma): > 100 µM
TGI (IGROV1 ovarian): > 100 µM
TGI (OVCAR-8 ovarian): > 100 µM
TGI (NCI-H23 lung): > 100 µM
TGI (RXF 393 renal): > 100 µM
TGI (SK-MEL-2 melanoma): > 100 µM

COC1(C)C(=O)N2C1N(C(=O)OCc1ccccc1)CC2(C)C (stereo not given)
TGI (TK-10 renal): > 100 µM
TGI (SK-MEL-5 melanoma): > 100 µM
TGI (IGROV1 ovarian): > 100 µM
TGI (OVCAR-8 ovarian): > 100 µM
TGI (NCI-H23 lung): > 100 µM
TGI (RXF 393 renal): > 100 µM
TGI (SK-MEL-2 melanoma): > 100 µM

O=C(NCC(=O)N1CCOC1=O)OCc1ccccc1
TGI (TK-10 renal): > 100 µM
TGI (SK-MEL-5 melanoma): > 100 µM
TGI (IGROV1 ovarian): > 100 µM
TGI (OVCAR-8 ovarian): > 100 µM
TGI (NCI-H23 lung): > 100 µM
TGI (RXF 393 renal): > 100 µM
TGI (SK-MEL-2 melanoma): > 100 µM

NCCC(=O)NC(Cc1cnc[nH]1)C(=O)O (stereo not given)
TGI (TK-10 renal): > 100 µM
TGI (OVCAR-5 ovarian): > 100 µM
TGI (SK-MEL-5 melanoma): > 100 µM
TGI (MDA-MB-231 breast): > 100 µM
TGI (IGROV1 ovarian): > 100 µM
TGI (OVCAR-8 ovarian): > 100 µM
TGI (T-47D breast): > 100 µM
TGI (NCI-H23 lung): > 100 µM
TGI (SK-MEL-2 melanoma): > 100 µM

COc1cccc2c1[C@H]1CO[C@H]3C4C[C@H](C(=O)O)C([C@@H](C2)N13)N4C (stereo not given in full)
TGI (TK-10 renal): 5.71 µM
TGI (OVCAR-5 ovarian): 4.94 µM and > 24.3 µM
GI50 (SK-MEL-5 melanoma): 0.588 µM
TGI (SK-MEL-5 melanoma): 4.31 µM and 1.23 µM
GI50 (IGROV1 ovarian): 0.551 µM
TGI (IGROV1 ovarian): 9.94 µM and 1.59 µM
GI50 (OVCAR-8 ovarian): 2.81 µM and 0.888 µM
TGI (OVCAR-8 ovarian): 7.05 µM and 34.4 µM
GI50 (NCI-H23 lung): 0.564 µM
TGI (NCI-H23 lung): 5.47 µM and 1.63 µM
GI50 (RXF 393 renal): 0.136 µM
TGI (RXF 393 renal): 2.42 µM and 0.576 µM
GI50 (SK-MEL-2 melanoma): 0.245 µM
TGI (SK-MEL-2 melanoma): 2.11 µM and 0.655 µM

N#CC(C#N)=C(N)/C(C#N)=C/c1ccc2[nH]ccc2c1
TGI (TK-10 renal): > 100 µM
TGI (OVCAR-5 ovarian): > 100 µM
TGI (SK-MEL-5 melanoma): > 100 µM
TGI (IGROV1 ovarian): > 100 µM
TGI (OVCAR-8 ovarian): > 100 µM
TGI (T-47D breast): > 100 µM
TGI (NCI-H23 lung): > 100 µM
TGI (RXF 393 renal): > 100 µM
TGI (SK-MEL-2 melanoma): > 100 µM
